Data: patent publication US6054437A, “Method for inducing death of neoplastic cells using piperazine derivatives” (Hitachi Chemical Research Center, Inc., priority 1997, dated 2000)
Entries after “also recorded” stand apart in the source; their conditions may differ. Structures can show the parent of a compound that is named as a salt.

Legend:
[1] = test system: human prostate cancer cells; test: Subrenal capsule (SRC) tumor implant assay, prostate cancer; format: in vivo, human tumor in BDF/1 mice
Method: FIG. 17 is a graph showing the relationship between the mean change in size of tumor (delta mean) and the dosage of NCO-700 in a sub-renal capsule assay of human prostate cancer in BDF/1 mice.
3. In Vivo Model/Subrenal Capsule (SRC) Tumor Implant Assay
(§1) A tumor implant model, where human tumors were implanted into the renal capsule of mice was performed. The tumors successfully escaped the immune system of the mouse and grew over a six-day period. The advantage of this assay is that the effect of chemotherapeutic agents can be tested in vivo. This model was developed at the University of California, Irvine by Stratton et al. (Gynecologic Oncology 17:185-188, 1984). Human tumors were implanted on day one and were exposed to drug on days two-six. The size of the implant was determined at time zero and at the end of five days of drug treatment, and the difference in size of the implanted tumor at day six, when compared to control animals not exposed to drug, is referred to herein as the delta mean.
Human cancer cells can be grown in the sub-renal capsule of mice, where for a limited period of time they escaped the detection of the mouse's immune system. This assay provides a convenient system to study the effect of drugs on the growth of tumor cells in vivo. As this is a much more time-consuming assay, and requires more drug than the in vitro assays, the effect of NCO-700 was tested on a single prostate cancer cell line. Three groups of animals (n=23 total) were tested with three concentrations of NCO-700 including, 10 mg/kg, 20 mg/kg and 40 mg/kg.

[2] = test system: melanoma cell lines B16F10 and SK-Mel-2; test: Cancer cell death assay (LDH release), melanoma lines; format: cell-based, mouse (B16F10); human (SK-Mel-2); settings: compound alone, 24 hours
Method: FIG. 2 is a graph showing the relationship between LDH released and the concentration of NCO-700 in cancer cell death assays of melanoma cell lines B16F10 (mouse line) and SK-Mel-2 (human line).
(§2) 1. Cancer Cell Death Assay
(§3) Cell death was measured quantitatively by the release of a marker intracellular enzyme, lactate dehydrogenase (LDH), from damaged or killed cells. LDH released into the extracellular fluid, was measured 24 hours after drug exposure to cancer cells and the enzyme activity was determined by the method of Decker et al. (J. Immunolog Methods 15:61-99, 1988).
(§4) All cell lines used in the present study were obtained from the American Type Tissue Culture Laboratory and cultured according to their specifications. All were human cancer lines unless otherwise noted. The following cell lines and their tissue of origin used in our studies were:
(§5) The first assays performed measured the anti-neoplastic activity of NCO-700, alone, in cell death assays of a wide variety of human cancer cells. The results of these experiments are shown in FIGS. 1-6, where a dose-response curve of NCO-700 versus % LDH release is plotted, with higher values of LDH released indicating greater anti-neoplastic activity (apoptosis).

human tumor cells = test: Human tumor biopsy assay, tumors in general; format: cell-based; settings: 20 μM NCO-700 plus vinblastine or adriamycin
Method: 4. Human Tumor Biopsy Assays
where the effect of NCO-700 to enhance killing, by either vinblastine or adriamycin, of cancer cells cultured directly from patient's tumors (Von Hoff et al., Cancer Res. 43:1926-1931, 1983).
For the tumor biopsy assay, primary cell cultures were propagated directly from tumor specimens removed from patients. The cells were grown in suspension culture, treated with adriamycin or vinblastine plus NCO-700, and plated onto soft agar and incubated for two weeks before cell survival was determined.
In a final series of experiments, the effect of NCO-700 on survival of cells cultured directly from biopsied patient tumors was performed. This technique, referred to as a human tumor cloning system, was developed by Von Hoff and associates (Von Hoff et al., Cancer Res. 43:1926-1931, 1983) and was used clinically to predict the course of chemotherapy for these patients. In this method, tumor biopsies were separated into cell suspensions and treated for 1 hour with either 0.4 mg/ml vinblastine (VLB) or 0.5 mg/ml adriamycin (ADR) plus or minus 20 μM NCO-700. The cell suspensions were washed after one hour of incubation and plated with soft agar. After 14 days of incubation at 37°, the percent of colonies surviving was scored. […] In particular, the survival of tumor cells decreased to approximately 1/2 to 1/3 after exposure to NCO-700 and adriamycin. […]

HL-60 (leukemia) = test: Cancer cell death assay (LDH release), leukemia line; format: cell-based, human; settings: compound alone, 24 hours
Method: FIG. 4 is a graph showing the relationship between LDH released and the concentration of NCO-700 in cancer cell death assays of human cancer cell lines MCF-7 (breast), HL-60 (leukemia), and HEP-129 (liver).
as §2, §3, §4, §5

colon cancer cell lines = test: Cancer cell death assay (LDH release), colon lines; format: cell-based, human; settings: compound alone, 24 hours
Method: as §2, §3, §4, §5
In FIG. 8, a dose-response curve is shown of the effect of TOP-008 on the killing of breast, prostate and colon cell lines.

DU-145 (prostate) = test: Cancer cell survival assay, DU-145; format: cell-based, human; settings: DU-145, seven days, alone
Method: (§6) Cell survival was assayed in cultured tumor cells. From 500-1000 cells per well were plated in 24-welled culture dishes and exposed to drug for seven days. After drug exposure, a computerized cell imaging technique was utilized to ascertain the number of viable cells remaining in each culture. From the data, survival curves were plotted and a ED50 (drug concentration that permits 50% cell survival) were calculated.
(§7) The cancer cell survival assay is an important additional in vitro assay to assess the anti-neoplastic activity of compounds as the cells are given a prolonged exposure (seven days) to the drug. FIGS. 9-16 show the effect of increasing the dose of NCO-700 on the survival of a number of cancer cell lines. […] In the figures, the vertical axis is the object area, which is the number of surviving cancer cells calculated by a computer.

WIDR (colon) = test: Cancer cell survival assay, WIDR; format: cell-based, human; settings: seven days, alone
Method: as §6, §7
FIGS. 26-31 show the effect of increasing the dose of TOP-008 against a number of cancer cell lines. […] For example, if the activity of NCO-700 and TOP-008 are compared against the human colon cancer cell line WIDR (FIG. 16 in Experiment 1 versus FIG. 31) it is seen that the effective dose of TOP-008 is much lower in this particular assay.

human colon cancer cells = test: Subrenal capsule (SRC) tumor implant assay, colon cancer; format: in vivo, human tumor in BDF/1 mice
Method: FIG. 19 is a graph showing the relationship between the change in size of tumor and the dosage of NCO-700 in a sub-renal capsule assay of human colon cancer in BDF/1 mice.
as §1
The effect of NCO-700 on a colon cancer line was tested in the SRC assay. Three groups of animals (n=18 total) were tested with two concentrations of NCO-700 including. 50 mg/kg and 100 mg/kg. […] These studies confirm the high potential of NCO-700 and related compounds as new anti-neoplastic agents.

## CCOC(=O)[C@@H]1O[C@H]1C(=O)N[C@@H](CC(C)C)C(=O)N1CCN(Cc2ccc(OC)c(OC)c2OC)CC1 [NCO-700, Bis[ethyl (2R,3R)-3-[(S)-3-methyl-1-[4-(2,3,4-trimethoxyphenylmethyl)piperazin-1-ylcarbonyl]butylcarbamoyl]oxirane-2-carboxylate] Sulfate]
[1]; 10 mg/kg
  effect on tumor size: no effect
[1]; 20 mg/kg
  effect on tumor size: significant anti-neoplastic effect
[1]; 40 mg/kg
  effect on tumor size: highly significant
[2]
  anti-neoplastic activity (LDH release): all cells lines showed sensitivity to NCO-700
Human tumor cells
  activity in inhibiting survival / sensitizing human tumor cells: significant activity in inhibiting the survival of certain human tumor cells; also recorded: excellent activity in sensitizing to anticancer drugs
  response of all other tumors: varying degrees of positive response
HL-60 (leukemia)
  anti-neoplastic activity (LDH release): did not respond
Colon cancer cell lines
  anti-neoplastic activity (LDH release): partly responsive
DU-145 (prostate)
  anti-neoplastic activity (cell survival): significant anti-neoplastic activity
WIDR (colon)
  anti-neoplastic activity (cell survival): significant anti-neoplastic activity
Human colon cancer cells; 50 mg/kg
  effect on tumor size: slight effect
Human colon cancer cells; 100 mg/kg
  effect on tumor size: significant anti-neoplastic effect
